Data on one substance can be found in US8008258B2, “Cop 1 for treatment of inflammatory bowel diseases” (Yeda Research and Development Co. Ltd., priority 2003, dated 2011).

Experiment [1] concerns TNBS-induced colitis. Description: TNBS-induced colitis in SJL/J mice, various GA treatment modes. It is filed as in vivo. The arrangement: key to Macroscopic scoring of colon damage: Ulceration (max 10): 0 = completely normal, 10 = most severe ulceration; key to Macroscopic scoring of colon damage: Adhesion (max 2): adhesion score, 0 to 2; key to Macroscopic scoring of colon damage: Diarrhea (max 1): diarrhea score, 0 to 1; key to Macroscopic scoring of colon damage: Thickness (max 1): thickness score, 0 to 1. Conditions: for Decrease in the total histological score: statistically insignificant; for Macroscopic scoring of colon damage: Adhesion (max 2) / Macroscopic scoring of colon damage: Diarrhea (max 1) / Macroscopic scoring of colon damage: Thickness (max 1) / Macroscopic scoring of colon damage: Total Score (max 14) / Macroscopic scoring of colon damage: Ulceration (max 10): scoring 5 days after disease induction. On the procedure:
Induction of cholitis in mice. TNBS-colitis was induced by rectal instillation of 2,4,6-trinitrobenzene sulfonic acid 5% (w/v), mixed with an equal volume of ethanol, into anesthetized mice (100 μl/mouse). Each treatment group included 6-12 mice. Mice that died before day 4 were considered as treatment casualties and were not taken into consideration.
Assessment of colitis. Weight changes and survival were monitored daily. Five to eight days following TNBS instillation, mice were sacrificed and macroscopic as well as microscopic colonic damage was evaluated.
Macroscopic colonic scoring. Gross colonic damage was graded according to Reuter et al. (1996), using the combined values of the four standard macroscopic parameters: degree of colonic ulcerations (scale from 0—completely normal, to 10—most severe); intestinal and peritoneal adhesions (0 to 2); diarrhea (0 to 1); and thickness (0 to 1). The total score is the arithmetic sum of the four scores. The evaluation was performed in a blind procedure.
Microscopic scoring. Proximal, medial, and distal portions of colon were fixed in 10% phosphate-buffered formalin. Paraffin-embedded sections were stained with hematoxylin and eosin. The degree of histological damage and inflammation was graded according to Elson et al. (1996) using the combined values of the four microscopic parameters: extent (scale from 0—completely normal, to 2—involving more than one segment); inflammation (0—none to 3—severe); damage (0 to 3—severe transmural); and regeneration (0—complete re-eptihelization to 3—none). The total score is the arithmetic sum of the four scores. The evaluation was performed in a blind procedure.
Oral treatment—250 μg/day in PBS, fed by gastric intubation with an 18-gauge stainless steel feeding needle. Unless otherwise stated, feedings were performed on days-7, -5, -3, -1, 0, 2, 4 and 6, relative to the day of TNBS instillation. […]
To explore whether the beneficial effect of GA on TNBS-induced colitis is restricted to oral administration in the BALB/c strain or represents a more general effect, we studied the ability of GA administered by different routes and dosages to inhibit TNBS-induced colitis in two additional strains of mice.

The subject of experiment [2] is mesenteric lymph nodes (MLN) cells. Description: Lymphocyte proliferation (thymidine incorporation) in response to colonic extract, cells from colitis-induced mice. It is filed as cell-based. On the procedure:
FIGS. 4A-4F show the effect of GA on the lymphocyte proliferation in different mouse strains. The responses of normal mice, colitis-induced mice, and colitis-induced mice treated with GA orally or parenterally daily are compared in the BALB/c (FIGS. 4A, 4B), (SJL/JxBALB/c)F1 (FIGS. 4C, 4D), and SJL/J (FIGS. 4E, 4F) strains. Cells from spleens (FIGS. 4A, 4C, 4E) and mesenteric lymph nodes (MLN) (FIGS. 4B, 4D, 4F) were cultured, 7 days after disease induction, with no antigen, colonic extract (CE, 200 μg/ml), or GA (50 μg/ml). Results of thymidine incorporation are expressed as mean cpm±ISD of six culture wells and represent one of two similar experiments, using pooled cells from 3-5 mice in each group. # Indicates significant increase in the response to CE by colitic mice. * Indicates significant decrease in the response to CE induced by GA treatment.
Colon extract. Colons of syngeneic normal mice were cut into small strips and homogenized. The homogenate was diluted in PBS and passed through glass wool. Protein quantity was measured by using a protein assay kit (Bio-Rad, Richmond, Calif.).
Reactivity assays. Spleens and mesenteric lymph nodes (MLN) cells (0.5×10^6 cell/well) were cultured with either GA (50 μg/ml), colon extract (200 μg/ml), immobilized anti-CD3 (5 μg/ml), or PBS control, in a final volume of 250 μl/well (6 wells for each antigen). For proliferation assay, cells were cultured in RPMI 1640 with 10% FCS, pulsed with 1 μCi of [3H] thymidine after 48 h incubation, and harvested 12 h later. For cytokine (TNF-α and TGF-β) assay, cells were cultured in serum-free medium (DCCM-1), supernatants were collected after 72 h, and tested for the cytokines by ELISA using mAbs pairs (R&D Systems, Minneapollis, Minn.) according to the manufacturer's instruction.
For orientation: Uptake of a labelled nucleoside into DNA is a usual measure of proliferation.

Setting [3] is: GA injected daily (from day −7), 2.5 mg/mouse SC.
Setting [4] is: GA oral every other day (from day −7), 0.25 mg, 8 feedings.

Marks after values point to notes of the source that are not given here.

For glatiramer acetate [GA], the “Reduction in macroscopic score versus untreated control” value in experiment [1] (GA daily injections from day −7) was 2.7 fold. Besides, the “Mortality (succumbed)” value in experiment [1] (daily injection of GA) was determined as 8%. Further, in experiment [1] (daily-injected mice), the “Inhibition of weight loss caused by TNBS colitis” value was “major significant inhibition of weight loss”. In addition, the “Decrease in the total histological score” value in experiment [1] (feeding) came out at 0.5 points. Further, the “Decrease in the total histological score” value in experiment [1] (injection) turned out to be 1.8 points. The “Decrease in the total macroscopic score versus untreated mice” value in experiment [1] (oral treatment with GA) came to 1.7 Points. In experiment [1] (oral treatment with GA, by day 5), the Mortality rate was found to be 18%. Also, the “Inhibition of weight loss caused by TNBS colitis” value in experiment [1] (orally-treated mice) is reported as “modest, statistically insignificant, inhibition of weight loss”. Moreover, in experiment [1] (setting [3]), the “Macroscopic scoring of colon damage: Adhesion (max 2)” value came to 1.2, the “Macroscopic scoring of colon damage: Diarrhea (max 1)” value amounted to 0.5, the “Macroscopic scoring of colon damage: Thickness (max 1)” value was 0.5 and the “Macroscopic scoring of colon damage: Total Score (max 14)” value is listed as 5.7*. Moreover, the “Macroscopic scoring of colon damage: Ulceration (max 10)” value in experiment [1] (setting [3]) is reported as 3.5. In experiment [1] (setting [4]), the “Macroscopic scoring of colon damage: Adhesion (max 2)” value is reported as 1.8, the “Macroscopic scoring of colon damage: Diarrhea (max 1)” value was found to be 0.9, the “Macroscopic scoring of colon damage: Thickness (max 1)” value is listed as 0.9 and the “Macroscopic scoring of colon damage: Total Score (max 14)” value is on record as 10.7. For the same substance, the “Macroscopic scoring of colon damage: Ulceration (max 10)” value in experiment [1] (setting [4]) is 7.1. In addition, the “Inhibition of the MLN proliferation response to colonic extract by GA treatment” value in experiment [2] (MLN from (SJL/JxBALB/c)F1 mice treated either orally or parenterally with GA) is reported as “complete inhibition”. For the same substance, the “Inhibition of the local MLN proliferation response to colonic extract by GA treatment” value in experiment [2] (MLN from BALB/c, colonic extract 200 μg/ml, 7 days after disease induction) came to 66%. Further, the “Inhibition of the MLN proliferation response to colonic extract by GA treatment” value in experiment [2] (MLN from SJL/J mice treated either orally or parenterally with GA) is listed as “complete inhibition”.
